From ChEMBL document CHEMBL1201862, “PubChem BioAssay data set” (2004)
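Five compound concentrations were applied to cells in 96-well plates for 48 hours; endpoints were derived by simple linear interpolation of the resulting dose-response curve. Here, GI50 denotes the concentration required for 50% inhibition of growth.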 Active and inactive are the calls of the source. Cut-off read from the data, not from the text of the source: active = GI50 up to about 1.1 µM and inactive = higher.

Tests used:
Experiment in all cases: growth of human tumour cells (NCI), 48 h
SNB-19 = test system: SNB-19
NCI-H226 = test system: NCI-H226
UO-31 = test system: UO-31
RXF 393 = test system: RXF 393
CCRF-CEM = test system: CCRF-CEM
A549 = test system: A549
K562 = test system: K562
OVCAR-8 = test system: OVCAR-8
U-251 = test system: U-251
COLO 205 = test system: COLO 205
A498 = test system: A498
NCI-H23 = test system: NCI-H23
RPMI-8226 = test system: RPMI-8226
UACC-257 = test system: UACC-257
IGROV-1 = test system: IGROV-1
NCI-H522 = test system: NCI-H522
HOP-62 = test system: HOP-62
SR = test system: SR

Row | Compound | GI50 (SNB-19) | GI50 (NCI-H226) | GI50 (UO-31) | GI50 (RXF 393) | GI50 (CCRF-CEM) | GI50 (A549) | GI50 (K562) | GI50 (OVCAR-8) | GI50 (U-251) | GI50 (COLO 205) | GI50 (A498) | GI50 (NCI-H23) | GI50 (RPMI-8226) | GI50 (UACC-257) | GI50 (IGROV-1) | GI50 (NCI-H522) | GI50 (HOP-62) | GI50 (SR)
1 | COc1ccc(C=O)c(N(C)C(=O)C(C)(C)C)c1 | > 100 µM (inactive) | > 100 µM (inactive) | > 100 µM (inactive) | > 100 µM (inactive) | > 100 µM (inactive) | > 100 µM (inactive) | > 100 µM (inactive) | > 100 µM (inactive) | > 100 µM (inactive) | > 100 µM (inactive) | > 100 µM (inactive) | > 100 µM (inactive) | > 100 µM (inactive) | > 100 µM (inactive) | > 100 µM (inactive) | > 100 µM (inactive) | > 100 µM (inactive) | 
2 | C[C@]12CC/C(=N\OC(=O)Nc3ccccc3)C=C1CC[C@@H]1C2CC[C@@]2(C)C1CC[C@@H]2OC(=O)Nc1ccccc1 (some centres undefined) | > 100 µM (inactive) |  | > 100 µM (inactive) |  | > 100 µM (inactive) | > 100 µM (inactive) | 17.7 µM (inactive) | > 100 µM (inactive) | > 100 µM (inactive) | > 100 µM (inactive) | 92.9 µM (inactive) | 73.3 µM (inactive) | 15.4 µM (inactive) |  | > 100 µM (inactive) |  |  | 
3 | O=C(CC1(O)C(=O)Nc2ccccc21)c1ccccc1O (centres undefined) | > 100 µM (inactive) | > 100 µM (inactive) | 91.6 µM (inactive) | > 100 µM (inactive) |  | > 100 µM (inactive) | > 100 µM (inactive) | > 100 µM (inactive) |  | > 100 µM (inactive) | > 100 µM (inactive) | > 100 µM (inactive) | > 100 µM (inactive) | > 100 µM (inactive) | > 100 µM (inactive) | > 100 µM (inactive) | > 100 µM (inactive) | 
4 | COc1ccc(C(=O)C2CCC(C(=O)O)C2)cc1 (centres undefined) | > 100 µM (inactive) | > 100 µM (inactive) | > 100 µM (inactive) | > 100 µM (inactive) | > 100 µM (inactive) | > 100 µM (inactive) | > 100 µM (inactive) | > 100 µM (inactive) | > 100 µM (inactive) | > 100 µM (inactive) | > 100 µM (inactive) | > 100 µM (inactive) | > 100 µM (inactive) | > 100 µM (inactive) | > 100 µM (inactive) | > 100 µM (inactive) | > 100 µM (inactive) | > 100 µM (inactive)
5 | COc1ccc(C)cc1-c1cc(Sc2ccccc2)c(-c2cc(C)ccc2OC)o1 | > 31.6 µM (inactive) | > 31.6 µM (inactive) | > 31.6 µM (inactive) |  | > 31.6 µM (inactive) | > 31.6 µM (inactive) | > 31.6 µM (inactive) | > 31.6 µM (inactive) | > 31.6 µM (inactive) | > 31.6 µM (inactive) | > 31.6 µM (inactive) | > 31.6 µM (inactive) | > 31.6 µM (inactive) | > 31.6 µM (inactive) | > 31.6 µM (inactive) | > 31.6 µM (inactive) | > 31.6 µM (inactive) | 
6 | O=C(OCc1ccccc1)N1N=NC2C1C1CC(OCc3ccccc3)(OCc3ccccc3)C2O1 (centres undefined) |  | > 100 µM (inactive) | > 100 µM (inactive) | > 100 µM (inactive) | > 100 µM (inactive) | > 100 µM (inactive) | > 100 µM (inactive) |  | > 100 µM (inactive) | > 100 µM (inactive) | > 100 µM (inactive) | > 100 µM (inactive) | > 100 µM (inactive) | > 100 µM (inactive) | > 100 µM (inactive) |  | > 100 µM (inactive) | 
7 | O=S(=O)(N/N=C/c1cccc(Cl)c1Cl)c1ccccc1 |  | > 100 µM (inactive) | 94.4 µM (inactive) | 22.6 µM (inactive) | 66.2 µM (inactive) | > 100 µM (inactive) | 62.2 µM (inactive) | 78.2 µM (inactive) | 90.4 µM (inactive) | 89.7 µM (inactive) | 40.8 µM (inactive) | 45.6 µM (inactive) | 66.2 µM (inactive) | 48 µM (inactive) | 77.4 µM (inactive) |  | > 100 µM (inactive) | 38.8 µM (inactive)
8 | Cc1nc2c(n1C(C)(C)C)C(=O)c1ccccc1C2=O | > 100 µM (inactive) | 67.9 µM (inactive) | 37.2 µM (inactive) | > 100 µM (inactive) | 73.8 µM (inactive) | 92 µM (inactive) | 49.7 µM (inactive) | 56.8 µM (inactive) | 84.5 µM (inactive) | 64.1 µM (inactive) |  | 37.8 µM (inactive) |  | 42.6 µM (inactive) | 96.6 µM (inactive) | 44 µM (inactive) | > 100 µM (inactive) | 45 µM (inactive)
9 | CC(C)(C)c1cc2c(OP(c3ccccc3)c3ccccc3)c(c1)Cc1cc(C(C)(C)C)cc(c1OP(c1ccccc1)c1ccccc1)Cc1cc(C(C)(C)C)cc(c1OP(c1ccccc1)c1ccccc1)Cc1cc(C(C)(C)C)cc(c1OP(c1ccccc1)c1ccccc1)C2 | > 5 µM (inactive) | > 5 µM (inactive) | > 5 µM (inactive) | 19.8 µM (inactive) | > 5 µM (inactive) | > 5 µM (inactive) | > 5 µM (inactive) | > 5 µM (inactive) | > 5 µM (inactive) | > 5 µM (inactive) | > 5 µM (inactive) | > 5 µM (inactive) | > 5 µM (inactive) | > 5 µM (inactive) | > 5 µM (inactive) | > 5 µM (inactive) | > 5 µM (inactive) | 2.66 µM (inactive)
10 | O=C(c1cc(=O)c2ccc(O)cc2o1)c1ccc(Cl)cc1Cl | 49.1 µM (inactive) | 26.7 µM (inactive) | 5.92 µM (inactive) | 29 µM (inactive) | 7.35 µM (inactive) | > 30.8 µM (inactive) | 0.547 µM (active) | 22.8 µM (inactive) | 20.6 µM (inactive) | 3.27 µM (inactive) | 57.3 µM (inactive) | 24 µM (inactive) | 9.66 µM (inactive) | 19.5 µM (inactive) | 17.7 µM (inactive) | 9.89 µM (inactive) | 8.18 µM (inactive) | 
11 | CC1(Sc2ccccc2)CN(Cc2ccccc2)C1=O (centres undefined) | > 100 µM (inactive) | > 100 µM (inactive) | 22.8 µM (inactive) | > 100 µM (inactive) | > 100 µM (inactive) | > 100 µM (inactive) | 77.8 µM (inactive) | > 100 µM (inactive) | > 100 µM (inactive) | > 100 µM (inactive) | > 100 µM (inactive) | > 100 µM (inactive) | 57.3 µM (inactive) | 54.5 µM (inactive) | > 100 µM (inactive) | 60.3 µM (inactive) | > 100 µM (inactive) | 
12 | O=C1c2ccccc2C(=O)c2c1ccc1c3ccccc3n(Cc3ccccc3)c21 |  | 54.6 µM (inactive) | > 100 µM (inactive) |  | > 100 µM (inactive) | > 100 µM (inactive) | > 100 µM (inactive) | > 100 µM (inactive) |  | > 100 µM (inactive) |  |  | > 100 µM (inactive) |  | > 100 µM (inactive) | > 100 µM (inactive) | > 100 µM (inactive) | > 100 µM (inactive)
13 | COc1cc2cccc(/N=C/c3c(Br)ccc(OC)c3OC(C)C)c2cc1OC | > 100 µM (inactive) |  | 47.8 µM (inactive) |  | 25.7 µM (inactive) | 82.4 µM (inactive) | 27 µM (inactive) | 44.4 µM (inactive) | 32.8 µM (inactive) | > 100 µM (inactive) | > 100 µM (inactive) | 50.1 µM (inactive) | 22.1 µM (inactive) | 35.2 µM (inactive) | 59.4 µM (inactive) | 30.5 µM (inactive) | 53.2 µM (inactive) | 
14 | Cc1cc(N(CCC#N)CCC#N)ccc1/C=N\c1ccc(C(=O)NN2C(=O)/C(=C/c3ccc(N(CCC#N)CCC#N)cc3)N=C2c2cc([N+](=O)[O-])ccc2Cl)cc1 | > 100 µM (inactive) | > 100 µM (inactive) | > 100 µM (inactive) | > 100 µM (inactive) | 65.6 µM (inactive) | > 100 µM (inactive) | 33 µM (inactive) | > 100 µM (inactive) | > 100 µM (inactive) | > 100 µM (inactive) | > 100 µM (inactive) | > 100 µM (inactive) | > 100 µM (inactive) | > 100 µM (inactive) | > 100 µM (inactive) |  | 95.1 µM (inactive) | 
15 | CC(C)[C@H]1CO[C@]2(C)[C@@H]3CN(Cc4ccccc4)C[C@@H]3C(=O)N12 | > 100 µM (inactive) | > 100 µM (inactive) | > 100 µM (inactive) | > 100 µM (inactive) | > 100 µM (inactive) | > 100 µM (inactive) | > 100 µM (inactive) | > 100 µM (inactive) | > 100 µM (inactive) | > 100 µM (inactive) |  | > 100 µM (inactive) | > 100 µM (inactive) | > 100 µM (inactive) | > 100 µM (inactive) | > 100 µM (inactive) | > 100 µM (inactive) | > 100 µM (inactive)
16 | CC1=CC(C)(c2c[nH]c3ccccc23)CC(C)(C)c2c1[nH]c1ccccc21 (centres undefined) | 26.5 µM (inactive) | 18.6 µM (inactive) | 13.2 µM (inactive) | 12.4 µM (inactive) | 9.55 µM (inactive) | 14 µM (inactive) | 11.9 µM (inactive) | 13.7 µM (inactive) | 15.9 µM (inactive) |  | 17.7 µM (inactive) | 14.4 µM (inactive) | 11.9 µM (inactive) | 20.3 µM (inactive) | 16.2 µM (inactive) |  | 22.8 µM (inactive) | 12.5 µM (inactive)
17 | COc1ccc(/C=C(\NC(=O)c2ccccc2)c2nc3ccccc3[nH]2)cc1 | 37.3 µM (inactive) | 72.9 µM (inactive) | 22.4 µM (inactive) |  | 42.4 µM (inactive) | 41.6 µM (inactive) | 34.9 µM (inactive) | 39.3 µM (inactive) | 30.3 µM (inactive) | 24 µM (inactive) | > 100 µM (inactive) | 19.1 µM (inactive) | 18.9 µM (inactive) | 23.8 µM (inactive) | 30.5 µM (inactive) | 24.7 µM (inactive) | 46.2 µM (inactive) | 28.1 µM (inactive)
